Laboratory results taken from ChEMBL document CHEMBL2074387, “Expression of the bile salt export pump is maintained after chronic cholestasis in the rat” (Gastroenterology, 2000).

Experiments:
Bile salt export pump = target: T1, Bile salt export pump (Rattus norvegicus, UniProt O70127); assay: TP_TRANSPORTER: Western in vivo SD rat, liver; format: functional, organism-based, Sprague-Dawley
T1 sequence (O70127 whole entry): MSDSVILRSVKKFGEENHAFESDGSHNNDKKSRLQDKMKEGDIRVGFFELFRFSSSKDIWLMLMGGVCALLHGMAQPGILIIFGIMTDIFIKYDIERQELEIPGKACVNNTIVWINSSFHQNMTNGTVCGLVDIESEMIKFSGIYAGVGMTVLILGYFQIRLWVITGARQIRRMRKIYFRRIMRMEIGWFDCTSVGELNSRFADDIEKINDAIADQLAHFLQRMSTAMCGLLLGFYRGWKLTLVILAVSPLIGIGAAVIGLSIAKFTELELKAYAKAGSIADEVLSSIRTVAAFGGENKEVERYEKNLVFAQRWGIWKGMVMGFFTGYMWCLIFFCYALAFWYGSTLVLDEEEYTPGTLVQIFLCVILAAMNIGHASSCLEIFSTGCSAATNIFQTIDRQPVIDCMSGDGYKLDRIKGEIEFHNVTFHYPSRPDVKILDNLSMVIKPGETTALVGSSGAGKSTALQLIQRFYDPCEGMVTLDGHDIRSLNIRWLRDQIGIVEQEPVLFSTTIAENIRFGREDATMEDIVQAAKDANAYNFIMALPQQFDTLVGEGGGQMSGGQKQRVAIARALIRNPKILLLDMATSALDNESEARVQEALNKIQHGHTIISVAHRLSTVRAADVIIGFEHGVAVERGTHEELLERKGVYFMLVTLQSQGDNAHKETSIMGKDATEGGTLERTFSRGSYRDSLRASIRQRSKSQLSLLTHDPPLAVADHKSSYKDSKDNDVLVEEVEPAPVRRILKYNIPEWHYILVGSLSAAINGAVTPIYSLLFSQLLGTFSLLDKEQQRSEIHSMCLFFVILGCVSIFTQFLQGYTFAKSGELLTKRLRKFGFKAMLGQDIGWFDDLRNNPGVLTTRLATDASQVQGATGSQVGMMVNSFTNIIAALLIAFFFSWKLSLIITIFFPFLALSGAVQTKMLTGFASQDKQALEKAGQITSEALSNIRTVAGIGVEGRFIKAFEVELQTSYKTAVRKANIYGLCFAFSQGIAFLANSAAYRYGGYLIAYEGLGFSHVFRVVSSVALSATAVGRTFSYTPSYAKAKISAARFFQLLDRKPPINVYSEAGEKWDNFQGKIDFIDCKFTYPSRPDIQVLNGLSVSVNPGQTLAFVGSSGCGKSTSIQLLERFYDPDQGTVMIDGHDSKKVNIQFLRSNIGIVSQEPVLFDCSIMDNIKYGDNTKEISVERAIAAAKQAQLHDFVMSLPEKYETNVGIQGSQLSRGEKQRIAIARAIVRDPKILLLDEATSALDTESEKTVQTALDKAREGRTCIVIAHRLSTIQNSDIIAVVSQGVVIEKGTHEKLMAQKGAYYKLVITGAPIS

[1] = target: T2, Hepatic sodium/bile acid cotransporter (Rattus norvegicus, UniProt P26435); assay: TP_TRANSPORTER: Northern blot in vivo SD rat, liver; format: functional, organism-based, Sprague-Dawley
T2 sequence (P26435 whole entry): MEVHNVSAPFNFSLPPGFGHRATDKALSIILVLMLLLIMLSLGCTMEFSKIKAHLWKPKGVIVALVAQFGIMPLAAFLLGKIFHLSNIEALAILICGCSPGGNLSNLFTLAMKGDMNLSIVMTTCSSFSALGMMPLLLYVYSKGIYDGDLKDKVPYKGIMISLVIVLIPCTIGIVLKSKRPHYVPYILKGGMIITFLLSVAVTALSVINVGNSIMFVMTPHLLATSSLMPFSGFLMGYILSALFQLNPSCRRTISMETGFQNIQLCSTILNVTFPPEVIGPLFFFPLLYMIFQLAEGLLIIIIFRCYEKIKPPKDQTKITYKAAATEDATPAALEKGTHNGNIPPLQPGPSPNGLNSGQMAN

- Activity (Bile salt export pump): inducer [Decrease]
- Activity [1]: inducer [Decrease]
Structure (SMILES): C#C[C@]1(O)CC[C@H]2[C@@H]3CCc4cc(O)ccc4[C@H]3CC[C@@]21C [ETHINYL ESTRADIOL]
